Measured values: the NIST ThermoML archive (doi:10.1016/j.jct.2016.02.009)

Test: molar heat capacity at constant pressure
Conditions: 101.33 kPa, Crystal 2, Small (less than 1 g) adiabatic calorimetry

CCCCCCCCCCCCCCCCn1cc[n+](C)c1.O=S(=O)([N-]S(=O)(=O)C(F)(F)F)C(F)(F)F
Conditions	molar heat capacity at constant pressure [J/K/mol]
5 K	3.58
5.4 K	4.43
5.7 K	5.11
6.07 K	6
6.51 K	7.15
7.03 K	8.58
7.55 K	10.13
8.08 K	11.79
8.61 K	13.56
9.15 K	15.43
9.69 K	17.38
10 K	18.51
10.24 K	19.41
10.84 K	21.73
11.53 K	24.47
12.23 K	27.33
12.92 K	30.31
13.62 K	33.36
14.33 K	36.54
15 K	39.66
15.04 K	39.85
15.87 K	43.67
16.8 K	48.11
17.74 K	52.48
18.67 K	56.86
19.62 K	61.3
20 K	63.15
20.86 K	67.23
22.4 K	74.52
23.97 K	81.98
25 K	86.78
25.53 K	89.27
27.13 K	96.62
28.72 K	103.9
30 K	109.7
30.29 K	111.1
32.02 K	118.8
33.92 K	126.8
35 K	131.4
35.82 K	134.8
37.72 K	142.5
39.62 K	150
40 K	151.7
41.61 K	158
43.71 K	166.2
45 K	171.3
45.8 K	174.3
47.91 K	182.4
50 K	190
50.02 K	190.2
52.13 K	197.8
54.23 K	205.2
56.35 K	212.4
58.48 K	219.5
60 K	224.6
60.6 K	226.5
62.72 K	233.3
64.85 K	240.1
66.98 K	246.6
69.1 K	253.2
70 K	255.9
71.33 K	259.9
73.67 K	266.6
76.02 K	273.4
78.38 K	280
80 K	284.5
80.57 K	286.3
80.73 K	286.6
82.48 K	291.2
83.09 K	292.8
84.4 K	296.1
86.33 K	301.2
88.27 K	306.3
90 K	310.8
90.22 K	311.2
92.18 K	316.2
94.15 K	321.1
96.13 K	326.1
98.11 K	331
100 K	335.5
100.1 K	335.8
102.15 K	340.8
104.27 K	345.7
106.4 K	350.6
108.54 K	355.4
110 K	358.8
110.68 K	360.3
112.83 K	365
114.99 K	369.8
117.15 K	374.5
119.31 K	379.2
120 K	380.5
121.48 K	383.7
123.65 K	388.2
125.82 K	392.8
128 K	397.3
130 K	401.4
130.17 K	401.7
132.35 K	406.2
134.53 K	410.6
136.71 K	415
138.9 K	419.3
140 K	421.7
141.08 K	423.7
143.27 K	428.1
145.46 K	432.5
147.65 K	436.9
149.84 K	441.2
150 K	441.5
152.03 K	445.6
154.22 K	449.8
156.4 K	454.1
158.59 K	458.5
160 K	461.2
160.78 K	462.8
162.97 K	467.2
165.16 K	471.4
167.34 K	475.7
169.53 K	479.8
170 K	480.8
171.71 K	484.1
173.9 K	488.4
176.08 K	492.8
178.26 K	497.1
180 K	500.5
180.45 K	501.5
182.63 K	505.9
184.82 K	510.1
187 K	514.3
189.17 K	518.6
190 K	520.4
191.35 K	523.1
193.52 K	527.5
195.69 K	531.7
197.86 K	536.3
200 K	540.8
200.02 K	540.9
202.25 K	545.6
204.54 K	550.5
206.82 K	555.5
209.11 K	560.4
210 K	562.3
211.39 K	565.4
213.67 K	570.5
215.95 K	575.6
218.21 K	580.9
220 K	585
220.48 K	586.3
222.74 K	591.8
225 K	597.1
227.25 K	602.4
229.5 K	607.7
230 K	609.3
231.74 K	613.5
233.97 K	619.4
236.21 K	625.3
238.43 K	631.2
